ChEMBL document CHEMBL1125524, “Adenosine A1 antagonists. 2. Structure-activity relationships on diuretic activities and protective effects against acute renal failure” (J Med Chem, 1992)

Experiments:
[1] = tested on: Rattus norvegicus; test: Ratio of urinary excretion value (urinary volume) in treated rats to that in control rats, at a peroral dose of 25 mg/Kg; assay type: functional, Urine
[2] = biological target: Adenosine A2 receptor (Rattus norvegicus, UniProt P29276+P30543)
[3] = tested on: Rattus norvegicus; test: Ratio of urinary excretion value (Na+ concentration) in treated rats to that in control rats, at a peroral dose of 25 mg/Kg; assay type: functional, Urine
[4] = tested on: Rattus norvegicus; test: Percent inhibition of serum creatinine by the compound given as ratio of Cr value in treated to vehicle treated ones after intraperitoneal administration of 10 mg/kg of compound to rats(vehicle 4.38+/-0.17); assay type: functional; details: ip
[5] = tested on: Rattus norvegicus; test: Percent inhibition of Urea nitrogen by the compound given as ratio of UN value in treated to vehicle treated ones after intraperitoneal administration of 10 mg/kg of compound to rats(vehicle 164.3+/-4.9); assay type: functional; details: ip
[6] = tested on: Rattus norvegicus; test: Serum creatinine concentration measured after intraperitoneal administration of 10 mg/kg of compound to rats(vehicle 4.38+/-0.17); assay type: functional
[7] = tested on: Rattus norvegicus; test: Urea nitrogen concentration measured after intraperitoneal administration of 10 mg/kg of compound to rats(vehicle 164.3+/-4.9); assay type: functional
[8] = tested on: Rattus norvegicus; test: Effect on urinary excretion potassium and sodium after oral administration of 25 mg/kg to rats(potassium and sodium excretion in control rat is 0.160+/-0.006); assay type: functional, Urine
[9] = tested on: Rattus norvegicus; test: Oral diuretic activity was measured after oral administration of 25 mg/kg to rats(control volume is 0.76+/-0.01); assay type: functional, Urine
[10] = tested on: Rattus norvegicus; test: Ratio of sodium ion/potassium ion concentration in treated rats to that in control rats, at a peroral dose of 25 mg/Kg; assay type: functional
[11] = tested on: Rattus norvegicus; test: Percent inhibition of Urea nitrogen by the compound given as ratio of UN value in treated to vehicle treated ones after intraperitoneal administration of 1 mg/kg of compound to rats(vehicle 107.7+/-15.2); assay type: functional; details: ip
[12] = tested on: Rattus norvegicus; test: Ratio of urinary excretion value (Na+ concentration) in treated rats to that in control rats, at a peroral dose of 6.25 mg/Kg; assay type: functional, Urine
[13] = tested on: Rattus norvegicus; test: Serum creatinine concentration measured after intraperitoneal administration of 10 mg/kg of compound to rats(vehicle 2.89+/-0.18); assay type: functional
[14] = biological target: T1, Adenosine receptor A1 (Cavia porcellus, UniProt P47745)
T1 sequence (P47745 whole entry): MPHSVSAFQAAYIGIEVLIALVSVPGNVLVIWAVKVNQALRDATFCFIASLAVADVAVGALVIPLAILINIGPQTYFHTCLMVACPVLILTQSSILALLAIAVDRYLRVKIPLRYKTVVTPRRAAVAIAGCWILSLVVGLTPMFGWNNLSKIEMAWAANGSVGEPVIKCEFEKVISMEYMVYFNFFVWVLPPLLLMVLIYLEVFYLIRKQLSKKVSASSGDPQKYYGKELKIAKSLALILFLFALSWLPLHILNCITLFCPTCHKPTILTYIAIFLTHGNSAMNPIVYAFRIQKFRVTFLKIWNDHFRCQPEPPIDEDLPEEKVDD
Description: Binding affinity against adenosine A1 receptor in guinea pig forebrain membranes using N6-[3H]cyclohexyladenosine as radioligand

[15] = tested on: Rattus norvegicus; test: Percent inhibition of serum creatinine by the compound given as ratio of Cr value in treated to vehicle treated ones after intraperitoneal administration of 10 mg/kg of compound to rats(vehicle 2.89+/-0.18); assay type: functional; details: ip
[16] = tested on: Rattus norvegicus; test: Effect on urinary excretion potassium and sodium after oral administration of 25 mg/kg to rats(potassium and sodium excretion in control rat is 0.134+/-0.017); assay type: functional, Urine
[17] = tested on: Rattus norvegicus; test: Percent inhibition of serum creatinine by the compound given as ratio of Cr value in treated to vehicle treated ones after intraperitoneal administration of 1 mg/kg of compound to rats(vehicle 2.89+/-0.42); assay type: functional; details: ip
[18] = tested on: Rattus norvegicus; test: Urea nitrogen concentration measured after intraperitoneal administration of 10 mg/kg of compound to rats(vehicle 138.4+/-9.8); assay type: functional
[19] = tested on: Rattus norvegicus; test: Serum creatinine concentration measured after intraperitoneal administration of 1 mg/kg of compound to rats(vehicle 2.89+/-0.42); assay type: functional
[20] = tested on: Rattus norvegicus; test: Urea nitrogen concentration measured after intraperitoneal administration of 1 mg/kg of compound to rats(vehicle 107.7+/-15.2); assay type: functional
[21] = tested on: Rattus norvegicus; test: Ratio of urinary excretion value (urinary volume) in treated rats to that in control rats, at a peroral dose of 6.25 mg/Kg; assay type: functional, Urine
[22] = tested on: Rattus norvegicus; test: Percent inhibition of Urea nitrogen by the compound given as ratio of UN value in treated to vehicle treated ones after intraperitoneal administration of 10 mg/kg of compound to rats(vehicle 138.4+/-9.8); assay type: functional; details: ip
[23] = tested on: Rattus norvegicus; test: Oral diuretic activity was measured after oral administration of 25 mg/kg to rats(control volume is 0.87+/-0.04); assay type: functional, Urine

CCCn1c(=O)c2c(nc(C(C3CC3)C3CC3)n2CCC)n(CCC)c1=O
T/C [1]: 1.47 | Ki [2]: 6300 nM | T/C [3]: 1.18 | inhibition in vivo at 10 mg/kg [4]: 7% | inhibition in vivo at 10 mg/kg [5]: 3% | Cr [6]: 4.09 mg/dL | UN [7]: 159.2 mg/dL | Na [8]: 0.188 m equiv 6hr-1 100g-1 | Urine volume [9]: 1.12 ml 6hr-1 100g-1 | Na+/K+ [10]: 0.92

FC(F)(F)c1nnc2c(NC3CCCC3)nc3ccccc3n12
inhibition in vivo at 1 mg/kg [11]: 15% | T/C [12]: 1.1 | T/C [1]: 2.13 | Ki [2]: 1300 nM | T/C [3]: 1.55 | Cr [13]: 1.52 mg/dL | Ki [14]: 76 nM | inhibition in vivo at 10 mg/kg [15]: 48% | Na [16]: 0.314 m equiv 6hr-1 100g-1 | inhibition in vivo at 1 mg/kg [17]: 10% | UN [18]: 58.9 mg/dL | Cr [19]: 2.6 mg/dL | UN [20]: 92 mg/dL | Na+/K+ [10]: 1.71 | T/C [21]: 0.92 | inhibition in vivo at 10 mg/kg [22]: 62% | Urine volume [23]: 1.86 ml 6hr-1 100g-1
